Results on four compounds are retold here after US20230406911A1, “COMPOSITIONS AND METHODS FOR PREVENTING, INHIBITING, DISRUPTING, OR TREATING A POLYMICROBIAL BIOFILM” (priority 2020, published 2023).

The test system of experiment [1] is established NTHI biofilms. Conditions: antibiotic at concentrations ≥4-fold below the MIC; Brockson et al., 2014; cited from earlier work.
The subject of the next experiment is NRel M. catarrhalis. The settings on record: Mokrzan et al., 2018; cited from earlier work.
The test system of another experiment is NTHI. The experiment in a line: Antibiotic sensitivity of biofilm-resident, planktonic or NRel NTHI. In kind it is cell-based, Nontypeable Haemophilus influenzae strain 86-028NP. Conditions: for sensitivity of biofilm-resident NTHI to killing: 16 h biofilm, same concentrations as for planktonic/NRel; for sensitivity of biofilm-resident NTHI to killing / killing of planktonic NTHI at the concentration chosen for the assay: 2 h antibiotic exposure; for sensitivity of anti-IHF NRel to killing, compared with planktonic NTHI / sensitivity of anti-IHF NRel to killing, compared with biofilm-resident NTHI: NRel collected after 15 min anti-IHF IgG, TMP-SMX 0.09/0.45 μg/ml, AMC 0.30/0.15 μg/ml; for sensitivity of anti-IHF NRel to killing, compared with planktonic NTHI: 2 h (FIG. 5d, 5e); for sensitivity of anti-IHF NRel to killing, compared with biofilm-resident NTHI / sensitivity of anti-rsPilA NRel to killing, compared with biofilm-resident NTHI: 2 h, P≤0.0001; for susceptibility of time-matched anti-IHF NRel to killing, compared with planktonic NTHI: NRel collected after 2 h anti-IHF IgG, TMP-SMX 0.94/4.7 μg/ml, AMC 2.5/1.25 μg/ml (FIG. 6c, 6d); for susceptibility of time-matched anti-rsPilA NRel to killing, compared with planktonic NTHI: NRel collected after 2 h anti-rsPilA IgG, TMP-SMX 0.09/0.45 μg per ml, AMC 0.3/0.15 μg per ml (FIG. 6a, 6b); for sensitivity of anti-rsPilA NRel to killing, compared with planktonic NTHI / sensitivity of anti-rsPilA NRel to killing, compared with biofilm-resident NTHI: NRel collected after 6 h anti-rsPilA IgG, TMP-SMX 0.94/4.7 μg per ml, AMC 2.5/1.25 μg per ml; for sensitivity of anti-rsPilA NRel to killing, compared with planktonic NTHI: 2 h (FIG. 5b, 5c); for killing of planktonic NTHI at the concentration chosen for the assay: mid-log planktonic NTHI density-matched to NRel. The protocol:
To avoid excessive manipulation or dilution of NRel NTHI, and to permit direct comparison of equal numbers of planktonic and NRel, Applicant adjusted the planktonic cell density to the same CFU per ml as the NRel population in each experiment as follows: NTHI were incubated statically to mid log phase growth then diluted to either 3×10^8 CFU/ml for comparison with anti-rsPilA NRel collected at 6 h, or to 2×10^8 CFU/ml for comparison with anti-IHF NRel collected at 15 min (see FIG. 1). Applicant then determined the concentrations of amoxicillin (Sigma-Aldrich, St. Louis, MO) and clavulanate (U.S. Pharmacopeia, Rockville, MD), or of trimethoprim (Sigma-Aldrich) and sulfamethoxazole (Santa Cruz Biotech, Dallas, TX) that killed approximately 25% of planktonic NTHI at each density. The same antibiotic concentrations were used for the anti-IHF or anti-rsPilA NRel, the density-matched (same CFU/ml) planktonic NTHI, and the adherent biofilm for each relevant experiment. […] Applicant then assessed killing of anti-IHF or anti-rsPilA NRel by concentrations of amoxicillin plus clavulanic acid (“augmentin”, AMC) or trimethoprim plus sulfamethoxazole (TMP-SMX) that killed 25% of the planktonic NTHI at the same density.
Anti-rsPilA or anti-IHF NRel were collected and sonicated as described above. After sonication for 2 min in a water bath sonicator to break up any NTHI aggregates, NRel or planktonic NTHI were incubated with the indicated antibiotics at 37° C. for 2 h, then serially diluted and plated on chocolate agar to quantify viable NTHI. To assay biofilm-resident NTHI, biofilms were established for 16 h at 37° C. as described above, washed twice with DPBS and incubated in sBHI supplemented with the indicated antibiotics at 37° C. After 2 h, biofilm-resident NTHI were collected by forceful pipetting, sonicated for 2 min and enumerated as described above. All experiments were performed at least three times on separate days with two or three technical replicates for each treatment and control group.

A further experiment relates to NRel NTHI. Conditions: Mokrzan et al., 2018; cited from earlier work.

As for `CC1(C)S[C@@H]2[C@H](NC(=O)[C@H](N)c3ccccc3)C(=O)N2[C@H]1C(=O)O` [ampicillin], the “sensitivity to killing of NTHI biofilms co-exposed to anti-DNABII antiserum, compared to planktonic counterparts” value in experiment [1] is recorded as “significantly more sensitive”.
As to `CC[C@H]1OC(=O)[C@H](C)[C@@H](O[C@H]2C[C@@](C)(OC)[C@@H](O)[C@H](C)O2)[C@H](C)[C@@H](O[C@@H]2O[C@H](C)C[C@H](N(C)C)[C@H]2O)[C@](C)(OC)C[C@@H](C)C(=O)[C@H](C)[C@@H](O)[C@]1(C)O` [clarithromycin], in the experiment with NRel M. catarrhalis, the “susceptibility of NRel M. catarrhalis released by anti-rsPilA, compared with growth on agar” value was “more susceptible”.
In the case of amoxicillin plus clavulanic acid [AMC], in the experiment with NTHI, the “sensitivity of biofilm-resident NTHI to killing” value is given as “minimal sensitivity”; the “sensitivity of anti-IHF NRel to killing, compared with planktonic NTHI” value is “significantly more sensitive”; the “sensitivity of anti-IHF NRel to killing, compared with biofilm-resident NTHI” value is on record as “significantly more sensitive”; the “susceptibility of time-matched anti-IHF NRel to killing, compared with planktonic NTHI” value was “significantly more susceptible”. Moreover, in the experiment on NTHI, the “susceptibility of time-matched anti-rsPilA NRel to killing, compared with planktonic NTHI” value is reported as “equally susceptible”; the “sensitivity of anti-rsPilA NRel to killing, compared with planktonic NTHI” value is “only equally as sensitive”; the “sensitivity of anti-rsPilA NRel to killing, compared with biofilm-resident NTHI” value was “significantly more sensitive”; the “killing of planktonic NTHI at the concentration chosen for the assay” value is on record as approximately 25%. Moreover, in experiment [1], the “sensitivity to killing of NTHI biofilms co-exposed to anti-DNABII antiserum, compared to planktonic counterparts” value is recorded as “significantly more sensitive”.
Take “trimethoprim plus sulfamethoxazole [TMP-SMX]”: the “susceptibility of NRel NTHI released by anti-rsPilA, compared with growth on agar” value in the experiment with NRel NTHI is on record as “more susceptible”. Besides, in the experiment on NTHI, the “sensitivity of biofilm-resident NTHI to killing” value is “minimal sensitivity”; the “sensitivity of anti-IHF NRel to killing, compared with planktonic NTHI” value was “only equally as sensitive”; the “sensitivity of anti-IHF NRel to killing, compared with biofilm-resident NTHI” value was “significantly more sensitive”; the “susceptibility of time-matched anti-IHF NRel to killing, compared with planktonic NTHI” value is given as “equally susceptible”. Further, in the experiment on NTHI, the “susceptibility of time-matched anti-rsPilA NRel to killing, compared with planktonic NTHI” value is recorded as “significantly more susceptible”; the “sensitivity of anti-rsPilA NRel to killing, compared with planktonic NTHI” value is on record as “significantly greater”; the “sensitivity of anti-rsPilA NRel to killing, compared with biofilm-resident NTHI” value is reported as “significantly more sensitive”; the “killing of planktonic NTHI at the concentration chosen for the assay” value is on record as approximately 25%.
